Patent US7632811B2, “Analogs of parathyroid hormone” (Societe de Conseils de Recherches et D'Applications …, priority 1995, dated 2009)
Non-standard residues stand in square brackets, D forms with d. Residues, ends and D or L forms follow the SMILES beside them. Cha = N[C@@H](CC1CCCCC1)C(=O)O; Nle = CCCC[C@H](N)C(=O)O; Aib = CC(C)(N)C(=O)O

Target: T1, PTH receptor present on SaOS-2 (human osteosarcoma cells) (Homo sapiens, UniProt Q03431)
T1 construct: host or cells: SaOS-2 human osteosarcoma cells (intact, confluent monolayers)
T1 sequence (Q03431 27-593): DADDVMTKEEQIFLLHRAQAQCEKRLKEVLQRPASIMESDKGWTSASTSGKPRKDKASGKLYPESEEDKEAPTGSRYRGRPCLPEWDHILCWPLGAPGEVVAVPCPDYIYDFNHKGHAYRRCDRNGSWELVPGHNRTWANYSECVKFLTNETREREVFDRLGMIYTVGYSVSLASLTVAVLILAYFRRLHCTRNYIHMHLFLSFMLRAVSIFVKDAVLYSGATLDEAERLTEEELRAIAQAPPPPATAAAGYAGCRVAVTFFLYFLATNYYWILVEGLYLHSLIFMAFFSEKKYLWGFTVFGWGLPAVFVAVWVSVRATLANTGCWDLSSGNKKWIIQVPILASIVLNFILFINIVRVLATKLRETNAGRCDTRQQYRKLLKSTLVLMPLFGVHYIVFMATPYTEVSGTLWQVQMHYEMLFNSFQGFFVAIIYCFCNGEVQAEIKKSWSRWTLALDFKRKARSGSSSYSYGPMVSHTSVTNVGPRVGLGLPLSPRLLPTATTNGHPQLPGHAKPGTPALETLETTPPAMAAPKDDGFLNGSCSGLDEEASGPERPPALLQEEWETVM
Assay: Binding to PTH receptor on SaOS-2 cells (competition with mono-125I-[Nle8,18,Tyr34(3-125I)]bPTH(1-34)NH2)
Conditions: Table I, 2 hrs at room temperature, read-out: Kd (half maximal inhibition of binding of mono-125I-[Nle8,18, Tyr34(3-125I)]bPTH(1-34)NH2)
Method: A. Binding to PTH Receptor
The peptides of the invention were tested for their ability to bind to the PTH receptor present on SaOS-2 (human osteosarcoma cells). SaOS-2 cells (American Type Culture Collection, Rockville, Md.; ATCC #HTB 85) were maintained in RPMI 1640 medium (Sigma, St. Louis, Mo.) supplemented with 10% fetal bovine serum (FBS) and 2 mM glutamine at 37EC in a humidified atmosphere of 5% CO2 in air. The medium was changed every three or four days, and the cells were subcultured every week by trypsinization.
SaOS-2 cells were maintained for four days until they had reached confluence. The medium was replaced with 5% FBS in RPMI 1640 medium and incubated for 2 hrs at room temperature with 10×10^4 cpm mono-^125I-[Nle^8,18, Tyr^34(3-^125I)]bPTH(1-34)NH2 in the presence of a competing peptides of the invention at various concentrations between 10^−11 M to 10^−4 M. The cells were washed four times with ice-cold PBS and lysed with 0.1 M NaOH, and the radioactivity associated with the cells was counted in a scintillation counter. Synthesis of mono-^125I-[Nle^8,18, Tyr^34(3-^125I)]bPTH(1-34)NH2 was carried out as described in Goldman, M. E., et al., Endocrinol., 123:1468 (1988).
The binding assay was conducted with various peptides of the invention, and the Kd value (half maximal inhibition of binding of mono-^125I-[Nle^8,18, Tyr^34(3-^125I)]bPTH(1-34)NH2) for each peptide was calculated.

Structure (SMILES) | Kd
CCCC[C@H](NC(=O)[C@H](CC(=O)O)NC(=O)[C@H](CCC(N)=O)NC(=O)[C@H](CC(C)C)NC(=O)[C@H](CCCCN)NC(=O)[C@H](CCCCN)NC(=O)[C@H](CCCNC(=N)N)NC(=O)[C@H](CC(C)C)NC(=O)[C@H](Cc1c[nH]c2ccccc12)NC(=O)[C@H](CCC(=O)O)NC(=O)[C@@H](NC(=O)[C@H](CCCNC(=N)N)NC(=O)[C@H](CCC(=O)O)NC(=O)[C@H](CCSC)NC(=O)[C@H](CO)NC(=O)[C@H](CC(N)=O)NC(=O)[C@H](CC(C)C)NC(=O)[C@H](Cc1c[nH]cn1)NC(=O)[C@H](CCCCN)NC(=O)CNC(=O)[C@H](CC(C)C)NC(=O)[C@H](CC(N)=O)NC(=O)[C@H](Cc1c[nH]cn1)NC(=O)[C@H](CCSC)NC(=O)[C@H](CC(C)C)NC(=O)[C@H](CCC(N)=O)NC(=O)[C@@H](NC(=O)[C@H](CCC(=O)O)NC(=O)[C@H](CO)NC(=O)[C@@H](NC(=O)[C@@H](N)CO)C(C)C)[C@@H](C)CC)C(C)C)C(=O)N[C@@H](Cc1c[nH]cn1)C(=O)N[C@@H](CC(N)=O)C(=O)N[C@@H](Cc1ccccc1)C(N)=O [[Nle^31]hPTH(1-34)NH2] (H-SVSEIQLMHNLGKHLNSMERVEWLRKKLQD[Nle]HNF-NH2) | 4 nM
CC[C@H](C)[C@H](NC(=O)[C@H](CCC(=O)O)NC(=O)[C@H](CO)NC(=O)[C@@H](NC(=O)[C@@H](N)CO)C(C)C)C(=O)N[C@@H](CCC(N)=O)C(=O)N[C@@H](CC(C)C)C(=O)N[C@@H](CCSC)C(=O)N[C@@H](Cc1c[nH]cn1)C(=O)N[C@@H](CC(N)=O)C(=O)N[C@@H](CC(C)C)C(=O)NCC(=O)N[C@@H](CCCCN)C(=O)N[C@@H](Cc1c[nH]cn1)C(=O)N[C@@H](CC1CCCCC1)C(=O)N[C@@H](CC(N)=O)C(=O)N[C@@H](CO)C(=O)N[C@@H](CCSC)C(=O)N[C@@H](CCC(=O)O)C(=O)N[C@@H](CCCNC(=N)N)C(=O)N[C@H](C(=O)N[C@@H](CCC(=O)O)C(=O)N[C@@H](Cc1c[nH]c2ccccc12)C(=O)N[C@@H](CC(C)C)C(=O)N[C@@H](CCCNC(=N)N)C(=O)N[C@@H](CCCCN)C(=O)N[C@@H](CCCCN)C(=O)N[C@@H](CC(C)C)C(=O)N[C@@H](CCC(N)=O)C(=O)N[C@@H](CC(=O)O)C(=O)N[C@H](C(=O)N[C@@H](Cc1c[nH]cn1)C(=O)N[C@@H](CC(N)=O)C(=O)N[C@@H](Cc1ccccc1)C(N)=O)C(C)C)C(C)C [[Cha^15]hPTH(1-34)NH2] (H-SVSEIQLMHNLGKH[Cha]NSMERVEWLRKKLQDVHNF-NH2) | 5 nM
CCCC[C@H](NC(=O)[C@H](CC1CCCCC1)NC(=O)[C@H](CCC(N)=O)NC(=O)[C@@H](NC(=O)[C@H](CCC(=O)O)NC(=O)[C@H](CO)NC(=O)[C@@H](NC(=O)[C@@H](N)CO)C(C)C)[C@@H](C)CC)C(=O)N[C@@H](Cc1c[nH]cn1)C(=O)N[C@@H](CC(N)=O)C(=O)N[C@@H](CC1CCCCC1)C(=O)NCC(=O)N[C@@H](CCCCN)C(=O)N[C@@H](Cc1c[nH]cn1)C(=O)N[C@@H](CC(C)C)C(=O)NC(C)(C)C(=O)N[C@@H](CO)C(=O)N[C@@H](CCCC)C(=O)NC(C)(C)C(=O)N[C@@H](CCCNC(=N)N)C(=O)N[C@H](C(=O)N[C@@H](CCC(=O)O)C(=O)N[C@@H](Cc1c[nH]c2ccccc12)C(=O)N[C@@H](CC(C)C)C(=O)N[C@@H](CCCNC(=N)N)C(=O)N[C@@H](CCCCN)C(=O)N[C@@H](CCCCN)C(=O)N[C@@H](CC(C)C)C(=O)N[C@@H](CCC(N)=O)C(=O)N[C@@H](CC(=O)O)C(=O)N[C@H](C(=O)N[C@@H](Cc1c[nH]cn1)C(=O)N[C@@H](CC(N)=O)C(=O)N[C@@H](Cc1ccc(O)cc1)C(N)=O)C(C)C)C(C)C [[Cha^7,11, Nle^8,18, Aib^16,19, Tyr^34]hPTH (1-34)NH2] (H-SVSEIQ[Cha][Nle]HN[Cha]GKHL[Aib]S[Nle][Aib]RVEWLRKKLQDVHNY-NH2) | 5 nM
CC[C@H](C)[C@H](NC(=O)[C@H](CCC(=O)O)NC(=O)[C@H](CO)NC(=O)[C@@H](NC(=O)[C@@H](N)CO)C(C)C)C(=O)N[C@@H](CCC(N)=O)C(=O)N[C@@H](CC(C)C)C(=O)N[C@@H](CCSC)C(=O)N[C@@H](Cc1c[nH]cn1)C(=O)N[C@@H](CC(N)=O)C(=O)N[C@@H](CC(C)C)C(=O)NCC(=O)N[C@@H](CCCCN)C(=O)N[C@@H](Cc1c[nH]cn1)C(=O)N[C@@H](CC(C)C)C(=O)N[C@@H](CC(N)=O)C(=O)N[C@@H](CO)C(=O)N[C@@H](CCSC)C(=O)N[C@@H](CCC(=O)O)C(=O)N[C@@H](CCCNC(=N)N)C(=O)N[C@H](C(=O)N[C@@H](CCC(=O)O)C(=O)N[C@@H](Cc1c[nH]c2ccccc12)C(=O)N[C@@H](CC1CCCCC1)C(=O)N[C@@H](CCCNC(=N)N)C(=O)N[C@@H](CCCCN)C(=O)N[C@@H](CCCCN)C(=O)N[C@@H](CC1CCCCC1)C(=O)N[C@@H](CCC(N)=O)C(=O)N[C@@H](CC(=O)O)C(=O)N[C@@H](CC1CCCCC1)C(=O)N[C@@H](Cc1c[nH]cn1)C(=O)N[C@@H](CC(N)=O)C(=O)N[C@@H](Cc1ccccc1)C(N)=O)C(C)C [[Cha^24,28,31]hPTH(1-34)NH2] (H-SVSEIQLMHNLGKHLNSMERVEW[Cha]RKK[Cha]QD[Cha]HNF-NH2) | 1000 nM

Further molecules by falling Kd, results first:

Kd | Structure (SMILES)
50 nM | CCCC[C@H](NC(=O)[C@H](CO)NC(=O)[C@H](CC(N)=O)NC(=O)[C@H](CC(C)C)NC(=O)[C@H](Cc1c[nH]cn1)NC(=O)[C@H](CCCCN)NC(=O)CNC(=O)[C@H](CC(C)C)NC(=O)[C@H](CC(N)=O)NC(=O)[C@H](Cc1c[nH]cn1)NC(=O)[C@H](CCCC)NC(=O)[C@H](CC(C)C)NC(=O)[C@H](CCC(N)=O)NC(=O)[C@@H](NC(=O)[C@H](CCC(=O)O)NC(=O)[C@H](CO)NC(=O)[C@@H](NC(=O)[C@@H](N)CO)C(C)C)[C@@H](C)CC)C(=O)N[C@@H](CCC(=O)O)C(=O)N[C@@H](CCCNC(=N)N)C(=O)N[C@H](C(=O)N[C@@H](CCC(=O)O)C(=O)N[C@@H](Cc1c[nH]c2ccccc12)C(=O)N[C@@H](CC(C)C)C(=O)N[C@@H](CCCNC(=N)N)C(=O)N[C@@H](CCCCN)C(=O)N[C@@H](CC1CCCCC1)C(=O)N[C@@H](CC(C)C)C(=O)N[C@@H](CCC(N)=O)C(=O)N[C@@H](CC(=O)O)C(=O)N[C@H](C(=O)N[C@@H](Cc1c[nH]cn1)C(=O)N[C@@H](CC(N)=O)C(=O)N[C@@H](Cc1ccccc1)C(N)=O)C(C)C)C(C)C [[Nle^8,18, Cha^27]hPTH(1-34)NH2] (H-SVSEIQL[Nle]HNLGKHLNS[Nle]ERVEWLRK[Cha]LQDVHNF-NH2)
20 nM | CC[C@H](C)[C@H](NC(=O)[C@H](CCC(=O)O)NC(=O)[C@H](CO)NC(=O)[C@@H](NC(=O)[C@@H](N)CO)C(C)C)C(=O)N[C@@H](CCC(N)=O)C(=O)N[C@@H](CC1CCCCC1)C(=O)N[C@@H](CCSC)C(=O)N[C@@H](Cc1c[nH]cn1)C(=O)N[C@@H](CC(N)=O)C(=O)N[C@@H](CC(C)C)C(=O)NCC(=O)N[C@@H](CCCCN)C(=O)N[C@@H](Cc1c[nH]cn1)C(=O)N[C@@H](CC(C)C)C(=O)N[C@@H](CC(N)=O)C(=O)N[C@@H](CO)C(=O)N[C@@H](CCSC)C(=O)N[C@@H](CCC(=O)O)C(=O)N[C@@H](CCCNC(=N)N)C(=O)N[C@H](C(=O)N[C@@H](CCC(=O)O)C(=O)N[C@@H](Cc1c[nH]c2ccccc12)C(=O)N[C@@H](CC(C)C)C(=O)N[C@@H](CCCNC(=N)N)C(=O)N[C@@H](CCCCN)C(=O)N[C@@H](CCCCN)C(=O)N[C@@H](CC(C)C)C(=O)N[C@@H](CCC(N)=O)C(=O)N[C@@H](CC(=O)O)C(=O)N[C@H](C(=O)N[C@@H](Cc1c[nH]cn1)C(=O)N[C@@H](CC(N)=O)C(=O)N[C@@H](Cc1ccccc1)C(N)=O)C(C)C)C(C)C [[Cha^7]hPTH(1-34)NH2] (H-SVSEIQ[Cha]MHNLGKHLNSMERVEWLRKKLQDVHNF-NH2)
